# Results: US20250188030A1, “Biphenyl and Phenylpyridine Compounds” (Pfizer Inc., priority 2023, published 2025)
# Biological target: KAT2A (Homo sapiens (Human), UniProt Q92830)
# Experiment: KAT2A acetyltransferase biochemical assay (RapidFire mass spectrometry, AcCoA to CoA)
# Details: KAT2A Ki at 1 μM AcCoA, 5 μM H3 1-21 peptide, 0.5 nM KAT2A, 90-minute reaction
# Protocol: • A) Compound preparation • 1) Prepare 10 mM stock solutions in 100% DMSO from solid material. • 2) Serial dilute 10 mM, 1 mM, 0.1 or 0.01 mM compound stocks 3-fold in 100% DMSO for 11-point dose response. • B) Reagent preparation • 1) Prepare 1×assay buffer containing 40 mM bis tris propane pH 8.0, 10 mM NaCl, 0.5 mM EDTA, and 0.002% Tween-20. • 2) Dilute Histone peptide (CPC Scientific) and KAT enzyme together in assay buffer to 1.25×. • 3) Dilute AcCoA (Sigma) in assay buffer to 5×. • C) Enzyme reaction • 1) Final reaction conditions for each KAT assay in a 100ul assay reaction volume: • i) KAT2A 0.5 nM, 1 uM AcCoA, 5 uM H3 1-21 peptide, 90-minute reaction • ii) KAT2B 0.5 nM, 1 uM AcCoA, 5 uM H3 1-21 peptide, 90-minute reaction • 2) Add 2 ul of diluted compound series to the assay plate (96-well round-bottom polypropylene plates) or 2 ul of DMSO for control wells. • 3) Add 11 μL of 10% formic acid to 100% effect (HPE) control wells. • 4) Add 80 ul of 1.25× Histone peptide/KAT mix to the assay plate via Multidrop Combi (ThermoFisher). Incubate 15 min at room temperature. • 5) Add 20 ul of 5× AcCoA to the assay plate via Multidrop Combi. • 6) Stop the reaction after the indicated time with the addition of 11 ul of 10% formic acid via Multidrop Combi. • 7) Each reaction was analyzed using Rapid Fire mass spectrometry platform.
# KAT enzymes were expressed using a baculovirus expression system and purified at Pfizer, La Jolla. […] Acetyl coenzyme A was purchased from Sigma-Aldrich (St. Louis, MO). All other biochemical reagents were purchased from Sigma-Aldrich or ThermoFisher Scientific (Waltham, MA).
# KAT assays were performed at room temperature in assay buffer containing 1 μM AcCoA, 5 μM histone peptide, 40 mM bis tris propane pH 8.0, 10 mM NaCl, 0.5 mM EDTA 0.002% Tween-20. 80 ul of 1.25× Histone peptide/enzyme mix was added to a 96-well round-bottom polypropylene assay plate containing 2 ul of serially diluted test compound in 100% dimethyl sulfoxide (DMSO). To start the reaction, 20 ul of 5× AcCoA solution was added to the assay plate. KAT assays were terminated after 90 minutes with the addition of 11 ul of 10% formic acid. All assays used histone H3 (1-21) peptide. The final enzyme concentration for each KAT was as follows: KAT2A, 0.5 nM; KAT2B, 0.5 nM. […] Each reaction was analyzed using Rapid Fire mass spectrometry platform. This methodology leverages an Agilent 6495 triple quadrupole (QQQ) mass spectrometer coupled to a RapidFire model 365 to specifically capture and measure KAT2 acetyltransferase activity, converting AcCoA (substrate) to CoA (product).
# Area under the curve (AUC) for both substrate and product peaks was determined for KAT2 at M.W. 809.6 [Substrate+H]+ and 767.3 [Product+H]+ with a +/−1 Da tolerance, respectively. Acetyltransferase activity (% of DMSO control) was calculated by: ((AUCProduct/AUCsubstrate)-AUCHPE)/(AUCZPE-AUCHPE))*100. Ki values were determined by fitting the % acetyltransferase activity at each inhibitor concentration to the Morrison equation for tightbinding competitive inhibitors using Pfizer proprietary curve fitting software.
# To determine the inhibition of KAT enzymatic activity by test compounds, assay reactions were conducted in a volume of 100 μL in 96-well round-bottom polypropylene assay plate. The reactions were performed in assay buffer (40 mM bis tris propane, pH 8, 10 mM NaCl, 0.5 mM EDTA, 0.002% Tween-20).
# Sequence of KAT2A (Q92830 whole entry): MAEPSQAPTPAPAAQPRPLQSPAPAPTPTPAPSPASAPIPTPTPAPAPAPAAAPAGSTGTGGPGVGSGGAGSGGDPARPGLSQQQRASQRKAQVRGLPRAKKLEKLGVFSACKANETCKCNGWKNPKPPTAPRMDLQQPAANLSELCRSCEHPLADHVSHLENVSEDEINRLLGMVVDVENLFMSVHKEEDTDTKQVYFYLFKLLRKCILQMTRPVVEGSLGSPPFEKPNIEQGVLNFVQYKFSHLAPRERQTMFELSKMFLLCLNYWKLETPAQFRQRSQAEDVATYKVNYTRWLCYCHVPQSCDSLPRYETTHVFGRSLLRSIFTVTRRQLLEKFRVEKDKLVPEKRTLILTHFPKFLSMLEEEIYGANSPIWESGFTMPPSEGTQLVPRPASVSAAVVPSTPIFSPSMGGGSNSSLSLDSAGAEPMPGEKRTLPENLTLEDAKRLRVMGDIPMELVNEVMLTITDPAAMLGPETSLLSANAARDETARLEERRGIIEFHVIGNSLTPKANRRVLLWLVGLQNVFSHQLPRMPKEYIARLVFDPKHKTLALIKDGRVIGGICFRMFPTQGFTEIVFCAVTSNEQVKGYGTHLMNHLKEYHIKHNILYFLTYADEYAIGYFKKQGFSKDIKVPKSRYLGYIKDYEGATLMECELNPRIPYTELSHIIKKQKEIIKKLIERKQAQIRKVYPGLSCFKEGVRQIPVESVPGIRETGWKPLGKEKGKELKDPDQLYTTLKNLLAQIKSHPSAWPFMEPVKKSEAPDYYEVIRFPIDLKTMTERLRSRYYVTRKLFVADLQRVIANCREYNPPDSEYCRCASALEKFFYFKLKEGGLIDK
row,Ki [nM],SMILES
1,2750,"CC(C)(C(=O)O)c1ccc(O[C@@H]2CC[C@@H](NC(=O)[C@]3(F)CNC4(CCC4)C3)C2)c(-c2cccc(F)c2C2CCC2)c1 [Example A2, 2-(2′-cyclobutyl-3′-fluoro-6-{[(1R,3R)-3-({[(7R)-7-fluoro-5-azaspiro[3.4]oct-7-yl]carbonyl}amino)cyclopentyl]oxy}biphenyl-3-yl)-2-methylpropanoic acid]"
2,660,"CS(=O)(=O)NC(=O)Cc1ccc(O[C@@H]2CC[C@@H](NC(=O)C3(F)CNC4(CCCC4)C3)C2)c(-c2cccc(F)c2C2CCC2)c1 (single isomer, unassigned) [Example B15]"
3,> 99.9,"Cc1cc(NS(C)(=O)=O)n(-c2ccc(O[C@@H]3CC[C@@H](NC(=O)[C@@]4(F)CNC5(CCC5)C4)C3)c(-c3cccc(F)c3C3CCC3)c2)n1 (single isomer, unassigned) [Example L2]"

# Same assay, conditions: read-out: KAT2A Ki at 1 μM AcCoA, 5 μM H3 1-21 peptide, 0.5 nM KAT2A, 90-minute reaction
row,SMILES,Ki [nM]
1,"O=C(O)Cc1ccc(O[C@@H]2CC[C@@H](NC(=O)[C@]3(F)CNC4(CCC4)C3)C2)c(-c2cccc(F)c2C2CCC2)c1 (single isomer, unassigned) [Example A8]",> 400
2,"CC(C)S(=O)(=O)NC(=O)C(C)(C)c1ccc(O[C@@H]2CC[C@@H](NC(=O)[C@@]3(F)CNC4(CCCC4)C3)C2)c(-c2cccc(F)c2C2CCC2)c1 (single isomer, unassigned) [Example B23]",> 1000
3,"CCS(=O)(=O)NC(=O)C(C)(C)c1ccc(O[C@@H]2CC[C@@H](NC(=O)[C@@]3(F)CNCC(C)(C)C3)C2)c(-c2cccc(F)c2C2CCC2)c1 (single isomer, unassigned) [Example B21]",81.7
4,"CC(C)S(=O)(=O)NC(=O)C(C)(C)c1ccc(O[C@@H]2CC[C@@H](NC(=O)[C@@]3(F)CNCC(C)(C)C3)C2)c(-c2cccc(F)c2C2CCC2)c1 (single isomer, unassigned) [Example B29]",221
5,"CC(C)(C(=O)NS(=O)(=O)C1(C)CC1)c1ccc(O[C@@H]2CC[C@@H](NC(=O)[C@@]3(F)CNC4(CCC4)C3)C2)c(-c2cccc(F)c2C2CCC2)c1 (single isomer, unassigned) [Example B33]",27.6
6,"CCS(=O)(=O)NC(=O)C(C)(C)c1ccc(O[C@@H]2CC[C@@H](NC(=O)[C@@]3(F)CNC4(CCCC4)C3)C2)c(-c2cccc(F)c2C2CCC2)c1 (single isomer, unassigned) [Example B19]",34.7
7,"CC(C)(C(=O)NS(=O)(=O)C1CC1)c1ccc(O[C@@H]2CC[C@@H](NC(=O)[C@@]3(F)CNC4(CCCC4)C3)C2)c(-c2cccc(F)c2C2CCC2)c1 (single isomer, unassigned) [Example B25]",72.8

# Second part, the molecule after the results:
row,Ki [nM],SMILES
1,1970,"CN1CC(C)(C)C[C@H]1C(=O)N[C@@H]1CC[C@@H](Oc2cccc(C(=O)NS(C)(=O)=O)c2-c2cccc(F)c2C2CCC2)C1 (atropisomer, axis not shown) [Example I2, N-[(1R,3R)-3-({(1ψ)-2′-cyclobutyl-3′-fluoro-6-[(methanesulfonyl)carbamoyl][1,1′-biphenyl]-2-yl}oxy)cyclopentyl]-1,4,4-trimethyl-L-prolinamide]"
2,> 99.9,"CCc1c(F)cccc1-c1cc([C@@H](C)C(=O)NS(=O)(=O)C2(C)CC2)ccc1O[C@@H]1CC[C@@H](NC(=O)[C@@]2(F)CNC3(CCCC3)C2)C1 (single isomer, unassigned) [Example C84]"
3,302,"CCc1c(F)cccc1-c1cc(C(C)(C)C(=O)NS(=O)(=O)C(C)C)ccc1O[C@@H]1CC[C@@H](NC(=O)[C@@]2(F)CNC3(CCCC3)C2)C1 (single isomer, unassigned) [Example C28]"
4,238,"O=C(Cc1ccc(O[C@@H]2CC[C@@H](NC(=O)[C@@]3(F)CNC4(CCC4)C3)C2)c(-c2cccc(F)c2C2CCC2)c1)NS(=O)(=O)C1CC1 (single isomer, unassigned) [Example C30]"
5,> 99.9,"CC(C)c1c(F)cccc1-c1cc(C(C)(C)C(=O)NS(=O)(=O)C2(C)CC2)ccc1O[C@@H]1CC[C@@H](NC(=O)[C@@]2(F)CNC3(CCC3)C2)C1 (single isomer, unassigned) [Example C42]"
6,926,"CN1CC2(CCCC2)C[C@H]1C(=O)N[C@@H]1CC[C@@H](Oc2ccc(C(=O)O)cc2-c2ccccc2C2CCC2)C1 (single isomer, unassigned) [Example D8]"
7,1360,"CN1CC2(CCCC2)C[C@@H]1C(=O)N[C@@H]1CC[C@@H](Oc2cccc(C(=O)NS(C)(=O)=O)c2-c2cccc(F)c2C2CCC2)C1 (atropisomer, axis not shown) [Example I8, (3ξ)-N-[(1R,3R)-3-({(1ψ)-2′-cyclobutyl-3′-fluoro-6-[(methanesulfonyl)carbamoyl][1,1′-biphenyl]-2-yl}oxy)cyclopentyl]-2-methyl-2-azaspiro[4.4]nonane-3-carboxamide]"
8,348,"CC1(C)C[C@@H](C(=O)N[C@@H]2CC[C@@H](Oc3cccc(C(=O)O)c3-c3cccc(F)c3C3CCC3)C2)CN1 (atropisomer, axis not shown) [Example H8, (1ψ)-2′-cyclobutyl-6-{[(1R,3R)-3-{[(3ξ)-5,5-dimethylpyrrolidine-3-carbonyl]amino}cyclopentyl]oxy}-3′-fluoro[1,1′-biphenyl]-2-carboxylic acid]"
9,118,"CC1(C)CNC[C@](F)(C(=O)N[C@@H]2CC[C@@H](Oc3ccc(C(C)(C)C(=O)NS(C)(=O)=O)cc3-c3cccc(F)c3C3CCC3)C2)C1 (single isomer, unassigned) [Example C36]"
10,9040,"CC(C)c1ccccc1-c1c(CC(=O)O)cccc1O[C@@H]1CC[C@@H](NC(=O)[C@@H]2CC(C)(C)CN2C)C1 (atropisomer, axis not shown) [Example H5, [(1ψ)-2′-(propan-2-yl)-6-({(1R,3R)-3-[(1,4,4-trimethyl-L-prolyl)amino]cyclopentyl}oxy)[1,1′-biphenyl]-2-yl]acetic acid]"
11,> 99.9,"CCS(=O)(=O)NC(=O)Cc1ccc(O[C@@H]2CC[C@@H](NC(=O)[C@@]3(F)CNC4(CCCC4)C3)C2)c(-c2ccccc2C(C)C)c1 (single isomer, unassigned) [Example C64]"
12,26400,"CC1(C)C[C@@H](C(=O)N[C@@H]2CC[C@@H](Oc3cccc(C(=O)O)c3-c3cccc(F)c3C3CCC3)C2)CN1 (atropisomer, axis not shown) [Example H10]"
13,1100,"CC1(C)C[C@H](C(=O)N[C@@H]2CC[C@@H](Oc3cccc(C(=O)O)c3-c3cccc(F)c3C3CCC3)C2)CN1 (atropisomer, axis not shown) [Example H11, (1ψ)-2′-cyclobutyl-6-{[(1R,3R)-3-{[(3ξ)-5,5-dimethylpyrrolidine-3-carbonyl]amino}cyclopentyl]oxy}-3′-fluoro[1,1′-biphenyl]-2-carboxylic acid]"
14,387,"CN1CC(C)(C)C[C@H]1C(=O)N[C@@H]1CC[C@@H](Oc2cccc(CC(=O)NS(N)(=O)=O)c2-c2ccccc2C2CCC2)C1 (atropisomer, axis not shown) [Example I6, N-[(1R,3R)-3-({(1ψ)-2′-cyclobutyl-6-[2-oxo-2-(sulfamoylamino)ethyl][1,1′-biphenyl]-2-yl}oxy)cyclopentyl]-1,4,4-trimethyl-L-prolinamide]"
15,> 99.9,"CC(C)c1ccccc1-c1cc(CC(=O)NS(=O)(=O)C2(C)CC2)ccc1O[C@@H]1CC[C@@H](NC(=O)[C@@]2(F)CNC3(CCCC3)C2)C1 (single isomer, unassigned) [Example C62]"
16,13.2,"CC1(S(=O)(=O)NC(=O)Cc2ccc(O[C@@H]3CC[C@@H](NC(=O)[C@@]4(F)CNC5(CCCC5)C4)C3)c(-c3cccc(F)c3C3CCC3)c2)CC1 (single isomer, unassigned) [Example C68]"
